Laboratory results as given in ChEMBL document CHEMBL5724914, “Linking interpersonal differences in gut microbiota composition and drug biotransformation activity” (2024).

Legend:
[1] = (§1) The drug is tested on Z-028 corresponding to mouse gut metagenome with ENA study accession number: PRJEB37062 and ENA sample accession number: ERS12561827 for biotransformation under anaerobic condition. The drug concentrations were measured over 9 timepoints collected between 0 and 24 hours of incubation by liquid-chromatography-coupled mass spectrometry (LC–MS); conditions: 2 µM
[2] = as §1, with “Z-022” for “Z-028”, “ERS12561821” for “ERS12561827”; conditions: 2 µM
[3] = as §1, with “Z-007” for “Z-028”, “rat” for “mouse”, “ERS12561807” for “ERS12561827”; conditions: 2 µM
[4] = as §1, with “WLS-350” for “Z-028”, “human” for “mouse”, “ERS12561789” for “ERS12561827”; conditions: 2 µM
[5] = as §1, with “WLS-240” for “Z-028”, “human” for “mouse”, “ERS12561773” for “ERS12561827”; conditions: 2 µM
[6] = as §1, with “WLS-170” for “Z-028”, “human” for “mouse”, “ERS12561762” for “ERS12561827”; conditions: 2 µM
[7] = as §1, with “WLS-073” for “Z-028”, “human” for “mouse”, “ERS12561749” for “ERS12561827”; conditions: 2 µM
[8] = as §1, with “WLS-010” for “Z-028”, “human” for “mouse”, “ERS12561743” for “ERS12561827”; conditions: 2 µM
[9] = as §1, with “WLS-006” for “Z-028”, “human” for “mouse”, “ERS12561741” for “ERS12561827”; conditions: 2 µM
[10] = human gut metagenome, 24 h, 2 µM
[11] = human gut metagenome, 24 h, 2 µM; remark: listed apart in the source
[12] = human gut metagenome, 24 h, 2 µM; remark: listed apart in the source
[13] = human gut metagenome, 24 h, 2 µM; remark: listed apart in the source
[14] = human gut metagenome, 24 h, 2 µM; remark: listed apart in the source
[15] = human gut metagenome, 24 h, 2 µM; remark: listed apart in the source
[16] = human gut metagenome, 24 h, 2 µM; remark: listed apart in the source
[17] = human gut metagenome, 24 h, 2 µM; remark: listed apart in the source
[18] = human gut metagenome, 24 h, 2 µM; remark: listed apart in the source
[19] = human gut metagenome, 24 h, 2 µM; remark: listed apart in the source
[20] = human gut metagenome, 24 h, 2 µM; remark: listed apart in the source
Note: call rule not given here.

Row | Compound | Bacterial Biotransformation [1] | Bacterial Biotransformation [2] | Bacterial Biotransformation [3] | Bacterial Biotransformation [4] | Bacterial Biotransformation [5] | Bacterial Biotransformation [6] | Bacterial Biotransformation [7] | Bacterial Biotransformation [8] | Bacterial Biotransformation [9] | Bacterial Biotransformation [10] | Bacterial Biotransformation [11] | Bacterial Biotransformation [12] | Bacterial Biotransformation [13] | Bacterial Biotransformation [14] | Bacterial Biotransformation [15] | Bacterial Biotransformation [16] | Bacterial Biotransformation [17] | Bacterial Biotransformation [18] | Bacterial Biotransformation [19] | Bacterial Biotransformation [20]
1 | CS(=O)(=O)O.OC(CCN1CCCCC1)(c1ccccc1)c1ccccc1 [PRIDINOL METHANESULFONATE] | Compound NOT metabolized | Compound NOT metabolized | Compound NOT metabolized | Compound NOT metabolized | Compound metabolized | Compound metabolized | Compound NOT metabolized | Compound NOT metabolized | Compound metabolized | Compound NOT metabolized | Compound NOT metabolized | Compound NOT metabolized | Compound metabolized | Compound NOT metabolized | Compound metabolized | Compound metabolized | Compound NOT metabolized | Compound NOT metabolized | Compound metabolized | Compound NOT metabolized
2 | CCCCc1nc(Cl)c(CO)n1Cc1ccc(-c2ccccc2-c2nn[nH]n2)cc1 [LOSARTAN] | Compound NOT metabolized | Compound NOT metabolized | Compound NOT metabolized | Compound metabolized | Compound metabolized | Compound metabolized | Compound NOT metabolized | Compound metabolized | Compound metabolized | Compound NOT metabolized | Compound metabolized | Compound metabolized | Compound metabolized | Compound metabolized | Compound metabolized | Compound metabolized | Compound metabolized | Compound metabolized | Compound metabolized | Compound metabolized
3 | CCc1nn(CCCN2CCN(c3cccc(Cl)c3)CC2)c(=O)n1CCOc1ccccc1 [NEFAZODONE] | Compound NOT metabolized | Compound NOT metabolized | Compound NOT metabolized | Compound NOT metabolized | Compound metabolized | Compound metabolized | Compound NOT metabolized | Compound metabolized | Compound metabolized | Compound NOT metabolized | Compound NOT metabolized | Compound NOT metabolized | Compound NOT metabolized | Compound metabolized | Compound metabolized | Compound metabolized | Compound metabolized | Compound metabolized | Compound metabolized | Compound metabolized
4 | Cc1ccccc1N1C(=O)c2cc(S(N)(=O)=O)c(Cl)cc2NC1C (stereo not given) [METOLAZONE] | Compound NOT metabolized | Compound NOT metabolized | Compound NOT metabolized | Compound metabolized | Compound metabolized | Compound NOT metabolized | Compound NOT metabolized | Compound NOT metabolized | Compound NOT metabolized | Compound NOT metabolized | Compound NOT metabolized | Compound NOT metabolized | Compound NOT metabolized | Compound metabolized | Compound NOT metabolized | Compound NOT metabolized | Compound metabolized | Compound NOT metabolized | Compound NOT metabolized | Compound NOT metabolized
5 | CN1CCc2c(c3ccccc3n2Cc2ccccc2)C1.CN1CCc2c(c3ccccc3n2Cc2ccccc2)C1.O=S(=O)(O)c1cccc2c(S(=O)(=O)O)cccc12 | Compound NOT metabolized | Compound NOT metabolized | Compound NOT metabolized | Compound NOT metabolized | Compound NOT metabolized | Compound metabolized | Compound NOT metabolized | Compound NOT metabolized | Compound NOT metabolized | Compound metabolized | Compound metabolized | Compound metabolized | Compound metabolized | Compound metabolized | Compound NOT metabolized | Compound NOT metabolized | Compound NOT metabolized | Compound NOT metabolized | Compound NOT metabolized | Compound NOT metabolized
6 | C[C@@H](CO)NC(=O)[C@@H]1C=C2c3cccc4[nH]cc(c34)C[C@H]2N(C)C1.O=C(O)/C=C\C(=O)O [ERGONOVINE MALEATE] | Compound NOT metabolized | Compound NOT metabolized | Compound NOT metabolized | Compound metabolized | Compound metabolized | Compound metabolized | Compound metabolized | Compound metabolized | Compound metabolized | Compound metabolized | Compound metabolized | Compound metabolized | Compound metabolized | Compound metabolized | Compound metabolized | Compound NOT metabolized | Compound metabolized | Compound NOT metabolized | Compound metabolized | Compound NOT metabolized
7 | CN(C)C(=O)C(CCN1CCC(O)(c2ccc(Cl)cc2)CC1)(c1ccccc1)c1ccccc1 [LOPERAMIDE] | Compound metabolized | Compound metabolized | Compound NOT metabolized | Compound metabolized | Compound metabolized | Compound metabolized | Compound NOT metabolized | Compound metabolized | Compound metabolized | Compound metabolized | Compound metabolized | Compound metabolized | Compound metabolized | Compound metabolized | Compound metabolized | Compound metabolized | Compound metabolized | Compound metabolized | Compound metabolized | Compound metabolized
